# Source: patent publication US20020164581A1 (priority 2001, published 2002)
# Assays:
# [1] = test system: glutathione reductase (GR); experiment: GR activity in cell lysate (NADPH oxidation); format: cell-based, bovine
# Description: Cells pretreated with different concentrations of E2 for 24 hours were harvested in a solution containing 50 mM Tris-HCl (pH 7.4), 1 mM EDTA, 2 μg/ml pepstatin A, 10 μg/ml benzamidine, and 10 μg/ml trypsin inhibitor. The cells were then lysed on ice by sonication at a setting of 50 mW, with 3×15 set cycles using a Cole-Parmer Ultrasonic Homogenizer (Chicago, Ill.). Protein concentrations in the samples were determined by the Bradford method with bovine serum albumin as a standard (Bradford, Anal. Biochem. 72:248-254, 1976).
# GR activity was determined by a modified method of Carlberg and Mannervik (Methods Enzymol. 11 3:484-490, 1985). One unit of GR activity is defined as the amount of protein that oxidizes 1 nmole of β-NADPH per minute. Briefly, 50 μl of 2 mM β-NADPH in 10 mM Tris buffer (pH 7.0) was added to a cuvette containing 50 μl of 20 mM glutathione (oxidized ofrm, GSSG) in phosphate buffer (0.1 M NaH2PO4, 0.1 M Na2HPO4, 0.1 mM EDTA, pH 7.0) and 800 μl of phosphate buffer. Following the addition of cell homogenate (about 100 μg protein/100 μl) the final mixture was measured at 340 nm for 3 minutes. The molar extinction coefficient of 6.22 mM/cm was used to determine the activity of […].
# [2] = test system: bovine aortic endothelial cells (bAECs)
# Description: Primary cultures of bAECs were established from five female beef cattle (ranging in age from 1 to 2 years old) according to the method of Fenselau and Mello (Cancer Res. 36:3269-3273, 1976). Pooled cells were routinely maintained under humidified air (5% CO2) at 37° C. in Dulbecco's modified medium supplemented with 10% fetal bovine serum (FBS). Cells from the second to the fifth passages were used in these studies.
# In the studies in which male and female bAECs were compared, batches of bAECs were independently established from 5 female and 4 male beef cattle (ranging in age from 1 to 2 years old) according to the method of Fenselau and Mello (Cancer Res. 36:3269-3273, 1976). Otherwise, the cells were treated and assessed as described in the paragraph above.
# Prior to E2 pretreatment, cells were grown in phenol red-free DMEM supplemented with 10% dextran/charcoal-stripped FBS for at least 1 passage (3-4 days). Phenol red-free Dulbecco's modified medium was used to avoid potential estrogenic interference. Serum steroid deprivation was conducted according to the conditions described by Yeh et al. (Proc. Natl. Acad. Sci. USA 95:5527-5532, 1998). The E2 level in the stripped serum was assayed using an [^125I] 17β-estradiol radioimmunoassay kit (TKE21, Diagnostic Products Corporation, Los Angeles, Calif.). […] The cells grown in E2-free environments were plated onto Falcon 24-well Primariae™ plates at a density of 5×10^4 cells/well. E2 in dimethylsulfoxide (DMSO) was added to each well at final concentrations ranging from 1 nM to 10 μM 3 hours after plating, and the cells were then incubated for 24 hours (a duration commonly used for the studies of the genomic effects of E2) at 37° C. Control cells were treated with a corresponding amount of DMSO (a final concentration 0.05%).
# Prior to oxidative challenge, E2-containing media was removed, and the cells were rinsed with PBS twice and re-fed with serum-free fresh medium. Subsequently, paraquat was added to the cells at the indicated doses (0.1-2.0 mM) for 3 hours. The oxidative challenge was terminated by aspiration of the oxidant-containing medium and quickly rinsing the cells twice with PBS. The cells were allowed to recover for 48 hours in medium supplemented with 10% regular FBS to exclude the possibility that different concentrations of E2 interfere with the cellular recovery processes.
# Cell survival after oxidative challenge was assessed with a 3-(4,5-dimethylthiazol-2-yl) 2,5 diphenyltetrazolium bromide (MTT) assay in which the mitochondrial dehydrogenase activity of viable cells reduces MTT to a blue formazan product (Carmichael et al. Cancer Res. 47:936-942, 1987). Our prior conditions were employed (Si et al., Endocrine in press, 2001). Briefly, cells were treated with 1/10 volume of MTT solution (5 mg/ml in PBS) and incubated at 37° C. for 2 hours. The supernatant was then removed, and 600 μl of lysis buffer (50% dimethyl formamide, 5% sodium dodecyl sulphate, 0.35 M acetic acid, 50 mM HCl) was added to each well. Following cell lysis, the absorbency was measured at 570 nm and used as an indicator of relative cell survival. The surviving fraction was calculated as compared to the cells without paraquat challenge.
# Two experimental groups were created. In the first group, E2 was added only during the 24-hour pretreatment period. In the second group, E2 was added only during the 3-hour paraquat exposure.
# [3] = 24 h pretreatment, paraquat challenge
smiles,measurement,setting,value
"C[C@]12CC[C@@H]3c4ccc(O)cc4CC[C@H]3[C@@H]1CC[C@@H]2O [E2, 17β-estradiol]",GR activity elevation relative to untreated cells,[1]; 1 nM E2 pretreatment (Example 8),~3 fold
same,GR activity increase,"[1]; female bAECs, 24 h 1 nM E2 (Example 12)",~2 fold
same,E2 dosage that defended cells when present during oxidative challenge,[2],10 µM
same,oxidant protection with E2 present during paraquat exposure,[2],mild but notable oxidant protection
same,oxidative protection after brief preincubation,[2],not effective in providing oxidative protection
same,oxidative resistance (MTT survival),[2],marked augmentation of oxidative resistance
same,protection against subsequent oxidative challenge,[2],acquired significant protection against subsequent oxidative challenge
same,resistance to paraquat toxicity (cell survival),[2],enhanced resistance to the toxic effect of paraquat
same,E2 concentration of optimal protection,[2]; [3],1 to 10 nM
same,E2 dosage at which protection gradually declined in magnitude,[2]; [3],about 1 μM
same,protection after brief estrogenic exposure,"[2]; E2 30 minutes only, washed, male or female endothelial cells",No protection by E2
same,LD50 of paraquat toxicity in E2-pretreated cells,[2]; cells pretreated with 1 nM E2 for 24 h,about 1 mM
same,magnitude of protection at elevated E2,"[2]; female bAECs, E2 0.1-10 μM, P<0.05 vs. 1 nM",gradually decreased
same,protection against paraquat challenge,"[2]; male bAECs, E2 pretreatment at any tested concentration",no protection was seen
